# Source: PMC9388906, “Dual inhibition of the Echinococcus multilocularis energy metabolism” (Frontiers in Veterinary Science, 2022)
# Read-outs that look alike come from different tables or passages of the source.
# What was measured:
# [1] = system: E. multilocularis metacestodes (isolate H95); assay: PGI assay (damage marker release), metacestodes, isolate H95; type: cell-based, Echinococcus multilocularis; settings: for EC50: read-out: EC50 metacestodes; for cytotoxicity at 10 µM: read-out: Metacestodes, PGI assay, relative to positive control Tx-100
# Method: (§1) To assess the in vitro efficacy of ELQs against E. multilocularis, (a) the damage-marker phosphoglucose isomerase (PGI) assay was applied against metacestodes, and (b) the germinal layer (GL) cell viability assay was applied to measure effects on isolated GL cells. Both assays are described in more detail below. The drug testing strategy was as follows: PGI assay was first conducted for overview screening at 10 μM with the parasite isolates H95 and Sval. The GL cell viability assay was performed at 0.1 μM with both isolates H95 and Sval.
# (§2) The PGI assay measures the amount of PGI that metacestodes release into the medium when damaged ([17], [32]). The purification and in vitro drug incubation of E. multilocularis metacestodes was conducted according to Stadelmann et al. ([32]). In short, cultures were applied for in vitro drug testing at the age of 6-8 weeks. E. multilocularis metacestodes were therefore purified by the addition of 2% saccharose and washed extensively with PBS. Purified metacestodes were suspended 1:3 with DMEM (without phenol red, supplemented with 100 U/mL penicillin, 100 μg/mL streptomycin) and distributed in 48-well plates (1 mL/well, thus 300 μL pure metacestode vesicles per well). […] The corresponding DMSO concentration was used as negative control and Tx-100 (0.1% final concentration) was used for total damage (positive control). […] After 5 days, relative PGI activities were measured and calculated as percentage of the Tx-100 control as described previously in Rufener et al. ([17]). They were calculated as mean values and standard deviations for each triplicate. […] EC50 measurements were performed twice, and averages and standard deviations of these repeated tests are given.
# [2] = system: E. multilocularis metacestodes (isolate Sval); assay: PGI assay (damage marker release), metacestodes, isolate Sval; type: cell-based, Echinococcus multilocularis; settings: for Activity in PGI assay (activity call): threshold >20% of Tx-100; for cytotoxicity at 10 µM: Echinococcus multilocularis, 120 h, read-out: Metacestodes, PGI assay, relative to positive control Tx-100
# Method: as §1, §2
# [3] = system: E. multilocularis GL cells (isolate Sval); assay: GL cell viability assay (CellTiter-Glo), isolate Sval; type: cell-based, Echinococcus multilocularis; settings: for viability at 0.1 µM: Echinococcus multilocularis, 120 h, read-out: GL cells, viability via ATP measurements, relative to DMSO control
# Method: as §1
# (§3) The isolation of E. multilocularis GL cells was done as described previously ([17]) with minor modifications. Fifteen units of GL cells were distributed to each well of a 384 well plate in a total volume of 12.5 μL conditioned medium. The different ELQs were added to the wells to 0.1 μM, in quadruplicates. As a negative control 0.1% DMSO was used. The 384-well plate was incubated for 5 days at 37°C under humid nitrogen atmosphere. Thereafter, viability of the GL cells under different drug treatments was assessed by CellTiter-Glo® (Promega AG, Dübendorf, Switzerland). The CellTiter-Glo reagent was complemented with 1% Tx-100. The luciferase bioluminescence was measured at 530 nm by using the Enspire multilabel reader (PerkinElmer Life Sciences, Schwerzenbach, Switzerland). Using Microsoft Excel, the blank values were subtracted from the experimental values and the relative viability compared to DMSO was calculated. Viabilities were calculated as mean values and standard deviations for each quadruplicate.
# [4] = system: E. multilocularis GL cells (isolate H95); assay: GL cell viability assay (CellTiter-Glo), isolate H95; type: cell-based, Echinococcus multilocularis; settings: for viability at 0.1 µM: Echinococcus multilocularis, 120 h, read-out: GL cells, viability via ATP measurements, relative to DMSO control
# Method: as §1, §3
# [5] = system: Reuber rat hepatoma (Rh) cells; assay: Mammalian cell toxicity, Alamar Blue assay; type: cell-based
# Method: Compounds were added in a serial dilution (30–0.23 μM, 1:2 dilution steps) and in triplicates. Plates were incubated at 37°C, 5% CO2 and humid atmosphere for 5 days. Resazurin was added to a final concentration of 10 mg/L to each well, and fluorescence measured at 530 nm on an Enspire multilabel plate reader over 3 h. By using Microsoft Office Excel 2010 and a logit-log transformation of the relative growth, IC50 values were calculated. The test was performed twice for each compound, and respective averages and standard deviations are given.
# [6] = system: E. multilocularis metacestodes; parameters: method as in PMID 30396011; settings: TEM of metacestodes; cited from earlier work
# [7] = system: E. multilocularis metacestodes; assay: Succinate concentrations in culture supernatants (malate dismutation activity); type: cell-based, Echinococcus multilocularis; settings: 10 μM; 5 days; anaerobic
# Method: Both compounds were tested either alone or in combination at 10 μM with the above-described PGI assay for 5 days for their activity against E. multilocularis metacestodes. PGI assays were done in triplicates and two times independently. […] To assess direct effects on the MD, succinate levels were measured in the supernatants of the PGI assay, as described below. To determine whether differences between groups were significant, data was subjected to student's t-test analysis and P-values below 0.05 are given.
# Succinate measurements in supernatants of drug-treated E. multilocularis metacestodes was performed with the “Succinic Acid Assay Kit” (Megazyme, Bray, Ireland). […] 20 μL of each diluted (1:20) sample or standard was used in triplicate for succinate measurements in 96-well plates (flat bottom, Greiner Bio-One GmbH, Frickenhausen, Germany). The reaction mix buffer was prepared as described in the supplier manual: per well 180 μL H2O, 20 μL solvent 1 (buffer, pH 8.4, sodium azide 0.02% w/v), 20 μL solvent 2 (NADH plus stabilizer), 20 μL solvent 3 (ATP, PEP, and CoA) and 2 μL solvent 4 (pyruvate kinase plus L-lactate dehydrogenase suspension) were added. After a 180 s pre-incubation time, a first measurement at 340 nm was done on an EnSpire multilabel plate reader (PerkinElmer Life Sciences, Schwerzenbach, Switzerland). 10 μL solvent 5 (succinyl-CoA synthetase suspension; 1:10 diluted) were then added to each well and the plate was read at 340 nm for 1 h every minute. […] Succinate levels are shown as mean values with standard deviations of biological triplicates. To determine whether differences between groups were significant, data was subjected to student's t-test analysis and P-values below 0.05 are given.
# [8] = system: E. multilocularis metacestodes; assay: PGI assay, single and combination treatment under normoxic and anaerobic conditions; type: cell-based, Echinococcus multilocularis; settings: 10 μM each; 5 days; anaerobic (0% O2)
# Method: The PGI assay measures the amount of PGI that metacestodes release into the medium when damaged ([17], [32]). The purification and in vitro drug incubation of E. multilocularis metacestodes was conducted according to Stadelmann et al. ([32]). In short, cultures were applied for in vitro drug testing at the age of 6-8 weeks. E. multilocularis metacestodes were therefore purified by the addition of 2% saccharose and washed extensively with PBS. Purified metacestodes were suspended 1:3 with DMEM (without phenol red, supplemented with 100 U/mL penicillin, 100 μg/mL streptomycin) and distributed in 48-well plates (1 mL/well, thus 300 μL pure metacestode vesicles per well). […] The corresponding DMSO concentration was used as negative control and Tx-100 (0.1% final concentration) was used for total damage (positive control). […] After 5 days, relative PGI activities were measured and calculated as percentage of the Tx-100 control as described previously in Rufener et al. ([17]). They were calculated as mean values and standard deviations for each triplicate. EC50 calculations were calculated based on logit-log transformed values in Microsoft Office Excel 2010. EC50 measurements were performed twice, and averages and standard deviations of these repeated tests are given.
# For double inhibition of the mitochondrial energy pathways of E. multilocularis, quinazoline as an inhibitor of the anaerobic MD ([29]) was applied in combination with ELQ-400 as an inhibitor of the ETC. Both compounds were tested either alone or in combination at 10 μM with the above-described PGI assay for 5 days for their activity against E. multilocularis metacestodes. PGI assays were done in triplicates and two times independently. […] Results of the assays were calculated as mean values and standard deviations for each biological triplicate were calculated as relative percentage to the Tx-100 control. To assess direct effects on the MD, succinate levels were measured in the supernatants of the PGI assay, as described below. […]
# [9] = isolate H95, 10 μM, 5 days, normoxic, mean (SD) of triplicates, active if >20%
# [10] = isolate Sval, 10 μM, 5 days, normoxic, mean (SD) of triplicates, active if >20%
# [11] = isolate Sval, 0.1 μM, 5 days, nitrogen atmosphere, mean (SD), active if <30%
# [12] = isolate H95, 0.1 μM, 5 days, nitrogen atmosphere, mean (SD), active if <30%
# [13] = Echinococcus multilocularis, 120 h, isolate H95, 10 μM, 5 days, normoxic, mean (SD) of triplicates, active if >20%
# [14] = Echinococcus multilocularis, 120 h, isolate H95, PGI assay, 5 days, range tested 30–0.12 μM, mean (SD) of two tests
# [15] = Rattus norvegicus, 120 h, confluent Rh cells, Alamar blue, 5 days, range tested 30–0.23 μM, mean (SD) of two tests, read-out: IC50 Rh confluent
# [16] = Rattus norvegicus, 120 h, preconfluent Rh cells, Alamar blue, 5 days, range tested 30–0.23 μM, mean (SD) of two tests, read-out: IC50 Rh preconfluent
# [17] = Echinococcus multilocularis, 120 h
structure (smiles),measurement,setting,value
Cc1[nH]c2ccccc2c(=O)c1-c1ccc(Oc2ccc(OC(F)(F)F)cc2)cc1 [ELQ-271],"Metacestodes, PGI assay, relative to positive control Tx-100",[1]; [9],33 (1.7) %
same,EC50,"[1]; isolate H95, PGI assay, 5 days, range tested 30–0.12 μM, mean (SD) of two tests",0.24 µM
same,"Metacestodes, PGI assay, relative to positive control Tx-100",[2]; [10],56.9 (4.3) %
same,Activity in PGI assay (activity call),"[2]; isolate Sval, 10 μM",activity
same,"GL cells, viability via ATP measurements, relative to DMSO control",[3]; [11],25.4 (7.2) %
same,"GL cells, viability via ATP measurements, relative to DMSO control",[4]; [12],2.7 (1.6) %
same,IC50,"[5]; confluent Rh cells, Alamar blue, 5 days, range tested 30–0.23 μM, mean (SD) of two tests, read-out: IC50 Rh confluent",> 30 µM
same,IC50,"[5]; preconfluent Rh cells, Alamar blue, 5 days, range tested 30–0.23 μM, mean (SD) of two tests, read-out: IC50 Rh preconfluent",8.64 µM
CCCCCCCc1c(C)[nH]c2cc(OC)ccc2c1=O [ELQ-100],cytotoxicity at 10 µM,[1]; [13],1.4%
same,cytotoxicity at 10 µM,[2]; [10],0%
same,viability at 0.1 µM,[3]; [11],57.9%
same,viability at 0.1 µM,[4]; [12],100%
COc1cc2[nH]c(C)c(-c3ccc(Oc4ccc(OC(F)(F)F)cc4)cc3)c(=O)c2cc1Cl [ELQ-300],"Metacestodes, PGI assay, relative to positive control Tx-100",[1]; [9],6.6 (2.2) %
same,"Metacestodes, PGI assay, relative to positive control Tx-100",[2]; [10],7.6 (1.1) %
same,"GL cells, viability via ATP measurements, relative to DMSO control",[3]; [11],46.9 (9.6) %
same,"GL cells, viability via ATP measurements, relative to DMSO control",[4]; [12],84.0 (7.0) %
CCCCCCCCCCCc1c(C)[nH]c2cc(OC)c(F)cc2c1=O [ELQ-435],cytotoxicity at 10 µM,[1]; [13],2.6%
same,cytotoxicity at 10 µM,[2]; [10],0%
same,viability at 0.1 µM,[3]; [11],80.1%
same,viability at 0.1 µM,[4]; [12],15.6%
CCCCCCCc1c(C)[nH]c2ccccc2c1=O [ELQ-127],cytotoxicity at 10 µM,[1]; [13],11.7%
same,cytotoxicity at 10 µM,[2]; [10],2.5%
same,viability at 0.1 µM,[3]; [11],40.4%
same,viability at 0.1 µM,[4]; [12],17.2%
CCCCCCCCCCCc1c(C)[nH]c2cc(OC)c(Cl)cc2c1=O [ELQ-434],cytotoxicity at 10 µM,[1]; [13],0.4%
same,cytotoxicity at 10 µM,[2]; [10],0.6%
same,viability at 0.1 µM,[3]; [11],81.3%
same,viability at 0.1 µM,[4]; [12],33.3%
CCCCCCCCCCCc1c(C)[nH]c2cc(F)cc(F)c2c1=O [ELQ-437],cytotoxicity at 10 µM,[1]; [13],37.6%
same,EC50,[1]; [14],1.71 µM
same,cytotoxicity at 10 µM,[2]; [10],33.1%
same,Activity in PGI assay (activity call),"[2]; isolate Sval, 10 μM",activity
same,viability at 0.1 µM,[3]; [11],19.1%
same,viability at 0.1 µM,[4]; [12],19.7%
same,IC50,[5]; [15],> 30 µM
same,IC50,[5]; [16],> 30 µM
CCCCCCCc1c(C)[nH]c2cc(OC)c(F)cc2c1=O [ELQ-433],cytotoxicity at 10 µM,[1]; [13],4.3%
same,cytotoxicity at 10 µM,[2]; [10],1.8%
same,viability at 0.1 µM,[3]; [11],62.1%
same,viability at 0.1 µM,[4]; [12],96.4%
CC(C)(C)[C@H]1CC[C@H](CC2=C(O)C(=O)c3ccccc3C2=O)CC1 [buparvaquone],Concentration already affecting the parasite ultrastructure (electron dense mitochondrial matrix),[6],0.3 µM
CCCCCCCc1c(C)[nH]c2cccc(F)c2c1=O [ELQ-136],cytotoxicity at 10 µM,[1]; [13],21.4%
same,EC50,[1]; [14],0.22 µM
same,cytotoxicity at 10 µM,[2]; [10],7%
same,viability at 0.1 µM,[3]; [11],15.1%
same,viability at 0.1 µM,[4]; [12],8.4%
same,IC50,[5]; [15],> 30 µM
same,IC50,[5]; [16],> 30 µM
"c1ccc2ncncc2c1 [quinazoline, reference compound]",Release of succinate by metacestodes compared to DMSO control,[7],significant reduction
same,PGI release of metacestodes relative to Tx-100,[8],no PGI release
CCCCCCCCCCCc1c(C)[nH]c2ccccc2c1=O [ELQ-436],cytotoxicity at 10 µM,[1]; [13],3.4%
same,cytotoxicity at 10 µM,[2]; [10],3.1%
same,viability at 0.1 µM,[3]; [11],16.4%
same,viability at 0.1 µM,[4]; [12],14%
CCCCCCCc1c(C)[nH]c2cc(F)cc(F)c2c1=O [ELQ-121],EC50,[1]; [17],1.19 µM
same,cytotoxicity at 10 µM,[1]; [17],15.2%
same,cytotoxicity at 10 µM,[2],20.9%
same,Activity in PGI assay (activity call),"[2]; isolate Sval, 10 μM",activity
same,viability at 0.1 µM,[3],7.3%
same,viability at 0.1 µM,[4],1%
same,IC50,"[5]; Rattus norvegicus, 120 h, read-out: IC50 Rh confluent",> 30 µM
same,IC50,"[5]; Rattus norvegicus, 120 h, read-out: IC50 Rh preconfluent",> 30 µM
COc1cc2[nH]c(C)c(-c3ccc(Oc4ccc(OC(F)(F)F)cc4)cc3)c(=O)c2cc1F [ELQ-316],"Metacestodes, PGI assay, relative to positive control Tx-100",[1]; [9],21.4 (0.1) %
same,"Metacestodes, PGI assay, relative to positive control Tx-100",[2]; [10],4.6 (1.3) %
same,"GL cells, viability via ATP measurements, relative to DMSO control",[3]; [11],58 (5.3) %
same,"GL cells, viability via ATP measurements, relative to DMSO control",[4]; [12],81.1 (9.5) %
